Source: US8481597B2, “Use of (-) (3-trihalomethylphenoxy) (4-halophenyl) acetic acid derivatives for treatment of insulin resistance, type 2 diabetes, hyperlipidemia and hyperuricemia” (Metabolex, Inc., priority 1999, dated 2013)
pIC50: −log10 of the molar value. “Also recorded” adds a separate entry of the source.

Tests used:
[1] = test system: C57BL/6J ob/ob mice; assay: Glucose lowering of (±) and (−) halofenate analogs in ob/ob mice (Example 12); format: in vivo; conditions: for time points with significantly reduced plasma glucose concentrations: 150 mg/kg oral single dose
[2] = test system: Zucker diabetic fatty (ZDF) rats; assay: Lipid lowering in Zucker Diabetic Fatty rats (Example 11); format: in vivo; conditions: for plasma cholesterol, in words: Experiment I, 13 days, racemate 50 mg/kg/day, enantiomers 25 mg/kg/day
Description: Male Zucker diabetic fatty (ZDF) rats were obtained from GMI Laboratories (Indianapolis, Ind.) at 9 weeks of age. Vehicle or enantiomers of halofenate administered by oral gavage on a daily basis starting at 74 days of age. Initial blood samples were obtained for analysis one day before treatment and at the indicated times in the treatment protocol. Blood was analyzed for plasma triglyceride and cholesterol by standard techniques.

[3] = test system: Zucker fa/fa rats; assay: Oral glucose challenge in Zucker fatty rats (Example 10); format: in vivo; conditions: racemate 100 mg/kg, enantiomers 50 and 100 mg/kg
Description: (§1) Prior to treatment, rats were assigned to 6 groups based on body weight. Each treatment group consisted of 8 rats. […] The gavage volume was 10 ml/kg. All rats received an oral glucose challenge (1.9 g/kg) 5.5 hours after the treatment and 4 hours after withdrawal of the food. Blood samples were taken at 0, 15, 30, 60, 90, 120, and 180 minutes following the glucose challenge for plasma glucose measurement. […] On day 5, rats received the intravenous insulin (0.75 U/kg) 5.5 hours after the last dose and 4 hours after withdrawal of the food. Blood samples were taken at 3, 6, 9, 12, 15 and 18 minutes following the insulin injection for plasma glucose measurement.

[4] = test system: C57BL/6J ob/ob mice; assay: Time course of glucose-lowering after a single oral dose in diabetic ob/ob mice (Example 8); format: in vivo; conditions: single oral dose 250 mg/kg; for plasma glucose at 24 hours: vehicle 408±16.2
[5] = test system: ZDF rats; assay: Plasma glucose in ZDF rats, (−) halofenate vs (+) halofenate (Example 13); format: in vivo; conditions: 50 mg/kg oral once a day for 3 days
Description: Male 8-9 week old ZDF rats were purchased from Genetic Models, Inc. (Indianapolis, Ind.). […] Rats that had 4-hour fasting plasma glucose levels between 200 and 500 mg/dL were used. […] The gavage volume was 5 ml/kg. Blood samples were taken at 5 hours post dose on day 2 and 3.

[6] = test system: Zucker fa/fa rats; assay: Short insulin tolerance test in Zucker fatty rats (Example 10); format: in vivo; conditions: 50 mg/kg/day oral for 5 days
Description: as §1

[7] = test system: oxonic acid induced hyperuricemic rats; assay: Plasma uric acid in oxonic acid induced hyperuricemic rats (Example 17); format: in vivo, SD rats; conditions: oral 50 mg/kg for 3 days, 100 mg/kg on the 4th day; blood 6 hours post gavage on day 4
Excerpt: Male SD rats, weight 275-300 g were purchased from Charles River. […] To establish a hyperuricemic state, animals were put on a diet containing 2.5% (w/w) of oxonic acid (Sigma Chemical Co, St. Louis, Mo., USA) throughout the experiment. Oxonic acid elevates plasma uric acid by inhibiting uricase. Rats were screened for plasma uric acid levels 3 days after they were placed on the diet, and those that had extreme plasma uric acid levels were excluded. Rats were assigned to one of three groups and the mean uric acid levels were equivalent in each group. […] Oxonic acid was delivered in a liquid formulation containing 0.9% (w/v) methylcellulose. The gavage and injection volumes were 5 ml/kg. Blood samples were taken at 6 hours post oral gavage on day 4. Plasma uric acid levels were determined colorimetrically using the Infinity Uric Acid Reagent (Sigma Chemical Co, St. Louis, Mo., USA).

[8] = test system: C57BL/6J ob/ob mice; assay: Glucose and insulin lowering on daily oral administration in diabetic ob/ob mice (Example 9); format: in vivo; conditions: for plasma glucose relative to control animals, in words / plasma insulin relative to vehicle control, in words: daily oral, racemate 250 mg/kg/day, enantiomers 125 and 250 mg/kg/day
Description: The gavage volume was 10 ml/kg.

[9] = target: CYP2C9 (Homo sapiens, UniProt P11712)
[10] = cited from earlier work
[11] = target: T1, cyclooxygenase 1 (COX-1) (Homo sapiens, UniProt P23219); assay: COX-1 inhibition in human whole blood assay, TXB2 production (Example 19); format: cell-based
T1 construct: was conducted using fresh human blood from healthy donors; endogenous in cells; host or cells: heparinized fresh human whole blood, stimulated with calcium ionophore A23187
Description: An assay for cyclooxygenase 1 (COX-1) inhibition by the compounds of the present invention was conducted using fresh human blood from healthy donors. […] The enzyme was activated by the commercially available calcium ionophore A23187.
This bioassay is based on the production of thromboxane B2 (TXB2) after COX-1 activation. When activated, COX-1 generates prostaglandin H2 which is then converted to thromboxane A2 (TXA2) by thromboxane synthase and then finally to thromboxane B2 by non-enzymatic […]. In addition, PGE2 levels were measured to exclude inhibition of thromboxane synthase. This assay allows discrimination between COX-1 and thromboxane synthase inhibition.
TXB2 and PGE2 were measured by commercially available immunoassay kits purchased from Assay Designs, Inc. (Ann Arbor, Mich.). All other chemicals were from Sigma except as noted. […] Immediately before use, all compounds were diluted 1:10 in RPMI-1640 medium (Gibco BRL, 11875-093) to make a 10× concentrated stock solution. The 10×RPMI-1640 stock solutions of the calcium ionophore were prepared in an identical manner. […] COX-1 was then activated by adding 25 microliters of the 10× stock solution of 25 micromolar calcium ionophore. The plates were shaken for 10 minutes at room temperature and then incubated at 37° C. for an additional 30 minutes. After these incubation times, the plates were centrifuged at 2,000 g for 5 minutes. Two microliters of plasma were taken from each reaction for the measurement of TXB2 using an enzyme immunoassay kit from Assay Designs, Inc. The PGE2 level in the same reaction was measured using a PGE2 enzyme immunoassay kit from Assay Designs, Inc.
The results of the assay are presented as the percent inhibition of COX-1 activity.

[12] = Experiment II, 37.5 mg/kg/day (High dose)

CYP2C9, sequence (P11712 whole entry): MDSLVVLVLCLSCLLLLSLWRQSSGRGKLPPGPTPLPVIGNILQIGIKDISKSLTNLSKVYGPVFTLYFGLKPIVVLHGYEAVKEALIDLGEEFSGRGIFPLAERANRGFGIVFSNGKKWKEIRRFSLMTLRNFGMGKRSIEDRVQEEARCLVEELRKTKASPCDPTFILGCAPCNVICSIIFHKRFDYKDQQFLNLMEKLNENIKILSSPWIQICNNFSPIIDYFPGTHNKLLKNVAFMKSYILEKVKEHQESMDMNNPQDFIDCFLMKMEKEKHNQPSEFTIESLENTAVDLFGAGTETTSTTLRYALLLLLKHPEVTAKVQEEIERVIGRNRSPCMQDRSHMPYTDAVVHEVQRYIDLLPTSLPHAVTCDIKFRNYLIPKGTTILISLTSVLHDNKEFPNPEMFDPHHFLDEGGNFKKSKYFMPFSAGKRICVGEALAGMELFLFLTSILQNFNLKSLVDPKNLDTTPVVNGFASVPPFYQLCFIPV
T1 sequence (P23219 24-599): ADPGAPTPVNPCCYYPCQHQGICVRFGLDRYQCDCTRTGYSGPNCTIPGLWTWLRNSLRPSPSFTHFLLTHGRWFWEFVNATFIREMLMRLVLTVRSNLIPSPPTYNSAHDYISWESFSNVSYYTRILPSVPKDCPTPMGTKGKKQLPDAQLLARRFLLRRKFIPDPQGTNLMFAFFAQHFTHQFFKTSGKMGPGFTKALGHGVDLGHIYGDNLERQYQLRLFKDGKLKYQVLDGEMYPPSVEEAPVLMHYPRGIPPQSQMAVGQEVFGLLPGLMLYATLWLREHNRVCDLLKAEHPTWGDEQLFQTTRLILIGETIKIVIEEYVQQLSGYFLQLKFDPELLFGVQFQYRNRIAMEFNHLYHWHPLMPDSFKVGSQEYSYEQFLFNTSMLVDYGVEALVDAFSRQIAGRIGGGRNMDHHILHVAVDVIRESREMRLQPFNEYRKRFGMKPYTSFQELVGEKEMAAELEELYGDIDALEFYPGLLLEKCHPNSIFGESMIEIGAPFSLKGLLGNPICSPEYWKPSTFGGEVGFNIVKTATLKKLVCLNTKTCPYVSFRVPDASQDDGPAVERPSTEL

CN(C)C(=O)COC(=O)C(Oc1cccc(C(F)(F)F)c1)c1ccc(Cl)cc1 (single isomer, unassigned; (-)) [(−)Analog 38]
time points with significantly reduced plasma glucose concentrations [1]: 6 h

O=C(NCCOC(=O)C(Oc1cccc(C(F)(F)F)c1)c1ccc(Cl)cc1)c1ccccc1 (single isomer, unassigned; (-)) [(−)Analog 36]
time points with significantly reduced plasma glucose concentrations [1]: 6 h

NC(=O)COC(=O)C(Oc1cccc(C(F)(F)F)c1)c1ccc(Cl)cc1 (racemic) [(±)Analog 37]
time points with significantly lowered plasma glucose concentrations ([1]; 125 mg/kg oral once a day): 54 h

NC(=O)COC(=O)C(Oc1cccc(C(F)(F)F)c1)c1ccc(Cl)cc1 (single isomer, unassigned; (-)) [(−)Analog 37]
time points with significantly reduced plasma glucose concentrations [1]: 6 h

CC(=O)NCCOC(=O)C(Oc1cccc(C(F)(F)F)c1)c1ccc(Cl)cc1 (single isomer, unassigned; (+)) [(+) halofenate, (+) 2-Acetamidoethyl 4-Chlorophenyl-(3-trifluoromethylphenoxy)-acetate, reference compound]
plasma cholesterol, in words [2]: remained relatively constant
days of treatment with significantly lower plasma cholesterol vs control [2, 12]: 7 days
plasma triglyceride, in words [2, 12]: significant lowering of plasma triglyceride
incremental glucose area under the curve (AUC) relative to vehicle control, in words [3]: not statistically significant
earliest time of plasma glucose reduction / significant activity [4]: 4.5 h
time of peak glucose-lowering activity [4]: 7.5 h
plasma glucose at 24 hours [4]: 306 ± 28.5 mg/dL
plasma glucose concentrations compared to vehicle-treated animals, in words [5]: failed to reduce plasma glucose concentrations
insulin sensitivity (slope of decline in glucose after i.v. insulin), in words [6]: small effect on insulin sensitivity that was not significantly different from the vehicle-treated control
plasma uric acid levels, in words [7]: lowered plasma uric acid levels, but it was not statistically significant
overnight fasting plasma insulin after 5 days treatment, in words ([8]; 125 mg/kg/day oral, ob/ob mice): did not lower plasma insulin
overnight fasting plasma insulin after 5 days treatment, in words ([8]; 250 mg/kg/day oral, ob/ob mice): resulted in a decrease in plasma insulin
plasma glucose following an overnight fast after 5 days treatment ([8]; 250 mg/kg/day oral, ob/ob mice, control 185.4±12.3): 127.2 ± 9.7 mg/dL
plasma glucose relative to control animals, in words [8]: Significant decreases in glucose levels
plasma insulin relative to vehicle control, in words [8]: insulins were lower

CN(C)CCOC(=O)C(Oc1cccc(C(F)(F)F)c1)c1ccc(Cl)cc1 (racemic) [(±)Analog 35]
6 hours Glucose ([1]; 125 mg/kg oral once a day, 6 hours after first dose): 319.6 ± 26.7 mg/dL
30 hours Glucose ([1]; 125 mg/kg oral once a day, 6 hours after second dose): 276.8 ± 17.6 mg/dL
54 hours Glucose ([1]; 125 mg/kg oral once a day, 6 hours after third dose): 286.2 ± 31.5 mg/dL
Predose Glucose ([1]; baseline before dosing, group later given 125 mg/kg oral once a day): 387.0 ± 18.0 mg/dL

Nc1ccc(S(=O)(=O)Nc2ccnn2-c2ccccc2)cc1 [SFZ, sulfaphenazole, reference compound]
4-OH TB Production [9]: BQL
% Inhibition (Tolbutamide, CYP2C9) ([9]; both, human, microsomes): ~100%

CC(=O)NCCOC(=O)C(Oc1cccc(C(F)(F)F)c1)c1ccc(Br)cc1 (single isomer, unassigned; (-)) [(−)Analog 29]
time points with significantly reduced plasma glucose concentrations [1]: 6 h

CC(=O)NCCOC(=O)C(Oc1cccc(C(F)(F)F)c1)c1ccc(Cl)cc1 (racemic) [racemic halofenate, 2-acetamidoethyl (4-chlorophenyl) (3-trifluoromethylphenoxy)acetate, reference compound]
plasma cholesterol, in words [2]: plasma cholesterol declined with treatment
incremental glucose area under the curve (AUC) relative to vehicle control, in words [3]: not statistically significant
plasma glucose after oral glucose challenge, in words ([3]; single oral dose 5.5 hours before challenge): The plasma glucose was reduced
time course of glucose-lowering, in words [4]: significantly reduced plasma glucose concentrations at most of the timepoints
time of peak glucose-lowering activity [4]: 9 h
plasma glucose at 24 hours [4]: 259.3 ± 20.8 mg/dL
side effects in patients ([10]; previous clinical studies (Friedberg et al. 1986)): gastrointestinal bleeding from stomach and peptic ulcers; also recorded: increased risk of gastrointestinal side effects such as upper gastrointestinal ulcers and bleeding
effect on glucose in patients with diabetes treated with the drug alone ([10]; previous studies from the 1970's): minimal effect on glucose
pIC50 [11]: ~3.00
plasma glucose relative to control animals, in words [8]: Significant decreases in glucose levels
plasma insulin relative to vehicle control, in words [8]: insulins were lower
